According to ChEMBL document CHEMBL4765487, “From a Designer Drug to the Discovery of Selective Cannabinoid Type 2 Receptor Agonists with Favorable Pharmacokinetic Profiles for the Treatment of Systemic Sclerosis” (J Med Chem, 2021):
pEC50: −log10 of the molar value. The source made the active and inactive calls. No cut-off for these calls is given here.

Tests used:
Mus musculus [1] = assay: Antifibrotic activity in BALB/c mouse model of BLM-induced systemic sclerosis assessed as reduction in alpha-SMA expression at 1 to 5 mg/kg, sc dosed once daily for 4 weeks by immunohistochemical analysis; assay type: functional, organism-based; conditions: dose 1-5 mg/kg
Mus musculus [2] = assay: Antifibrotic activity in BALB/c mouse model of BLM-induced systemic sclerosis assessed as reduction in Col1alpha mRNA expression at 1 to 5 mg/kg, sc dosed once daily for 4 weeks by quantitative real-time PCR analysis; assay type: functional, organism-based; conditions: dose 1-5 mg/kg
Cannabinoid receptor 2 [3] = target: T1, Cannabinoid receptor 2 (Homo sapiens, UniProt P34972); assay: Agonist activity at human CB2 receptor expressed in HEK293 cells after 24 hrs by luciferase reporter gene assay based Tango beta-arrestin recruitment method; assay type: cell-based
Cannabinoid receptor 1 [4] = target: T2, Cannabinoid receptor 1 (Homo sapiens, UniProt P21554); assay: Agonist activity at human CB1 receptor expressing CHO cells co-expressing Galpha16 by calcium mobilization assay relative to CP55940; assay type: functional, cell-based
Cannabinoid receptor 1 [5] = target: T2, Cannabinoid receptor 1; assay: Agonist activity at human CB1 receptor expressing CHO cells co-expressing Galpha16 by calcium mobilization assay; assay type: functional, cell-based
[6] = AUC (0 to infinity) in BALB/c mouse at 1 mg/kg, iv measured during 0.083 to 24 hrs post dose by LC-MS/MS analysis; assay type: ADME, organism-based; parameters: route intravenous, time lower 0.083 hrs, dose 1 mg/kg, time upper 24 hrs; conditions: in vivo
Cannabinoid receptor 2 [7] = target: T1, Cannabinoid receptor 2; assay: Agonist activity at human CB2 receptor expressing CHO cells co-expressing Galpha16 by calcium mobilization assay relative to CP55940; assay type: functional, cell-based; conditions: filed as agonist
[8] = target: Prostaglandin E2 receptor EP4 subtype (Homo sapiens) (UniProt P35408); assay: Agonist activity at EP4 (unknown origin) at 10 uM
in vitro = conditions: human, liver microsomes
[9] = Half life in BALB/c mouse at 5 mg/kg, po measured during 0.083 to 24 hrs post dose by LC-MS/MS analysis; assay type: ADME, organism-based; conditions: in vivo, time 0.083-24 hrs
[10] = target: T3, Probable G-protein coupled receptor 132 (Homo sapiens) (UniProt Q9UNW8); assay: Antagonist activity at GPR132 (unknown origin) at 10 uM
T3 sequence (whole entry): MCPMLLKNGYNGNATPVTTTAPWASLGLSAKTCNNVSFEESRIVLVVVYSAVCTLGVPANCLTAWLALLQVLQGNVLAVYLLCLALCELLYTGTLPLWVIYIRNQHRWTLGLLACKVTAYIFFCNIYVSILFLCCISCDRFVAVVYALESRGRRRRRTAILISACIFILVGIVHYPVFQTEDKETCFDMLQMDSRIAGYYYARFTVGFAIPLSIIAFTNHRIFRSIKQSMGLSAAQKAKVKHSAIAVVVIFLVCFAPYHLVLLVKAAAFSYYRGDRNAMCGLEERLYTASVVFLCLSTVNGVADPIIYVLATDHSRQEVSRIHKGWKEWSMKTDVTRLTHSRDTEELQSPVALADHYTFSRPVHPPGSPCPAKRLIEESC

[11] = Cmax in BALB/c mouse at 1 mg/kg, iv measured during 0.083 to 24 hrs post dose by LC-MS/MS analysis; assay type: ADME, organism-based; parameters: route intravenous, time upper 24 hrs, dose 1 mg/kg, time lower 0.083 hrs; conditions: in vivo
Mus musculus [12] = assay: Antifibrotic activity in BALB/c mouse model of BLM-induced systemic sclerosis assessed as reduction in TNF-alpha mRNA expression at 1 to 5 mg/kg, sc dosed once daily for 4 weeks by quantitative real-time PCR analysis; assay type: functional, organism-based; conditions: dose 1-5 mg/kg
[13] = Clearance in BALB/c mouse at 5 mg/kg, po measured during 0.083 to 24 hrs post dose by LC-MS/MS analysis; assay type: ADME, organism-based; conditions: in vivo, time 0.083-24 hrs
CHO = assay: Effect on ERK1/2 Thr202/Tyr204 phosphorylation in CHO cells at 0.1 to 10 uM incubated for 15 mins by Western blot analysis; assay type: functional, cell-based; conditions: Cricetulus griseus, dose 0.1-10 µM

T2 sequence (P21554 whole entry): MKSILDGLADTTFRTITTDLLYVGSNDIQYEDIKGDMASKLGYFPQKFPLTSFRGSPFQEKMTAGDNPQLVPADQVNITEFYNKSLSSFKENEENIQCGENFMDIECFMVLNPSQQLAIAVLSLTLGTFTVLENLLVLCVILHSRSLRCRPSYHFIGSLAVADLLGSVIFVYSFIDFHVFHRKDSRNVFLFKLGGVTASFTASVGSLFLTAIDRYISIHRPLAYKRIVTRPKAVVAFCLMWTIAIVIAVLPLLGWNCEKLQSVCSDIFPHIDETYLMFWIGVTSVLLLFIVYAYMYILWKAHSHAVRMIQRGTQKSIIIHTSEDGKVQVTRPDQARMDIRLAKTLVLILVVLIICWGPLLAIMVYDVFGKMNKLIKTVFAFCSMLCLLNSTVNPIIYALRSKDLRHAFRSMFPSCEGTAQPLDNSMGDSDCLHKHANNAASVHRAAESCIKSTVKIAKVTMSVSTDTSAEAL
T1 sequence (P34972 whole entry): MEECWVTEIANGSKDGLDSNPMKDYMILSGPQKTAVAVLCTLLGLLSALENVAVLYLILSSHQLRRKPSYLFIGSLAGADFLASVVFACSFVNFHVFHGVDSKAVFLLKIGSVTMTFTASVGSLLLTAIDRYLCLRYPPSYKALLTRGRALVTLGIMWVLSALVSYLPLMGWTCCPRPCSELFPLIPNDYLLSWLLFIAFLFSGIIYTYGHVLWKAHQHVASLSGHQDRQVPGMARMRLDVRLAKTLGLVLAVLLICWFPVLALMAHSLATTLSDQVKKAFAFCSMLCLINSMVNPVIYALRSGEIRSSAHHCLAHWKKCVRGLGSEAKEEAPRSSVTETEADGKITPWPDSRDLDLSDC
Sequence of Prostaglandin E2 receptor EP4 subtype (Homo sapiens) (P35408 whole entry): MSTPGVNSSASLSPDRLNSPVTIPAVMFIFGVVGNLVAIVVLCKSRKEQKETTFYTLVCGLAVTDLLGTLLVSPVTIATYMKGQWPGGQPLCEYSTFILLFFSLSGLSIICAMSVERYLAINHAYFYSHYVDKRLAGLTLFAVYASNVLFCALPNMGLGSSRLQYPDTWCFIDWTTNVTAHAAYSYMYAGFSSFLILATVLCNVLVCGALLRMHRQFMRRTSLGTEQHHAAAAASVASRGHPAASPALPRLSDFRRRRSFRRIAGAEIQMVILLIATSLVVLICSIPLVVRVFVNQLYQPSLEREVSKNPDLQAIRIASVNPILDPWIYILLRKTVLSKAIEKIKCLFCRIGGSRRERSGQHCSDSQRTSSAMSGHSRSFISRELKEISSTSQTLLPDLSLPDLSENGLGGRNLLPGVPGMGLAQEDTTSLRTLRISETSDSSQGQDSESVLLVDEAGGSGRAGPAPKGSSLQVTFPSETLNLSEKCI

For `CC(C)(CO)NC(=O)c1cc(C(C)(C)C)n(-c2ccc(C(F)(F)F)cn2)n1`, the Activity (Mus musculus [1]) was “Active”, the Activity (Mus musculus [2]) was “Active” and the pEC50 (Cannabinoid receptor 2 [3]) was 6.25. For the same compound, the Emax (Cannabinoid receptor 1 [4]) was 30%, the pEC50 (Cannabinoid receptor 1 [5]) was 5.74 and the AUC(0-inf) [6] was 0.422 µg·h/mL. The Emax (Cannabinoid receptor 2 [7]) was 100%, the Activity [8] was “inactive” and the microsomal CLint at 1 µM (in vitro) was 12.3 µL/min/mg. The half-life [9] was 2.18 h, the Activity [10] was “inactive” and the Cmax [11] was 0.959 µg/mL. The Activity (Mus musculus [12]) was “Active”, the CL/F [13] was 3.1 L/h/kg and the Activity (CHO) was “inactive”.
